According to ChEMBL document CHEMBL1201862, “PubChem BioAssay data set” (2004):
The source made the active and inactive calls.

Legend:
[1] = tested on: H4; test: Luminescence Cell-Based Dose Response HTS to Identify Activators of 5'UTR Stem-Loop Driven Prion Protein mRNA Translation in H4 Neuroglioblastoma Cells. [Related pubchem assays: 1829 (Project Summary), 1814 (Primary HTS)]; type: functional; conditions: Homo sapiens
[2] = tested on: HeLa; test: ATP-based viability loss in HeLa cells – cell-based, CellTiter-Glo luminescence, cherry-pick samples, cytotoxicity control for MITF activator project, dose response (AID 540259); type: functional; conditions: Homo sapiens
[3] = target: T1, Leucine aminopeptidase (Plasmodium falciparum 3D7, UniProt Q8IL11); test: P. falciparum M17LAP inhibitors, primary screen, biochemical, fluorogenic H-Leu-NHMec substrate, 1536-well (AID 1619); type: functional
T1 sequence (Q8IL11 whole entry): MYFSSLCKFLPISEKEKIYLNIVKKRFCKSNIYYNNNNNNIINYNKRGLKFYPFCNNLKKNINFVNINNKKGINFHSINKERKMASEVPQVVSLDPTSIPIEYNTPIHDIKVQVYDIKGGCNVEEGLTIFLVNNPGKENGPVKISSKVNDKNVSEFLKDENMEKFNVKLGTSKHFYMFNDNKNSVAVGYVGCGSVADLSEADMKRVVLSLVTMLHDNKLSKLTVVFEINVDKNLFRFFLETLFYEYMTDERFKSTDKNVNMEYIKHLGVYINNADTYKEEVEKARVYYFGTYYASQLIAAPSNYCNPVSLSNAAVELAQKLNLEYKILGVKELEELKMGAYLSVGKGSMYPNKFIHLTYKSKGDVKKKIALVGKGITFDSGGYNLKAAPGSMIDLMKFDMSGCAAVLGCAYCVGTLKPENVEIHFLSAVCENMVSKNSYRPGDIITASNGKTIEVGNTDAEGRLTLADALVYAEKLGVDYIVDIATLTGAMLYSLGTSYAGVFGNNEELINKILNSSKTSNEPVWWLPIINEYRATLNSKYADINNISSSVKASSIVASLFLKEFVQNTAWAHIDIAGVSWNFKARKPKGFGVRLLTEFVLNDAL

[4] = target: Dual specificity tyrosine-phosphorylation-regulated kinase 1A (Rattus norvegicus, UniProt Q63470); type: biochemical, Homo sapiens
[5] = target: T2, Corticotropin-releasing factor receptor 2/Corticotropin-releasing factor-binding protein (Homo sapiens, UniProt P24387+Q13324); test: activators of CRF receptor 2 with binding protein – uHTS hits, confirmation (AID 602473); type: functional; conditions: read-out: EC50_Mean
T2 sequence (Q13324 whole entry): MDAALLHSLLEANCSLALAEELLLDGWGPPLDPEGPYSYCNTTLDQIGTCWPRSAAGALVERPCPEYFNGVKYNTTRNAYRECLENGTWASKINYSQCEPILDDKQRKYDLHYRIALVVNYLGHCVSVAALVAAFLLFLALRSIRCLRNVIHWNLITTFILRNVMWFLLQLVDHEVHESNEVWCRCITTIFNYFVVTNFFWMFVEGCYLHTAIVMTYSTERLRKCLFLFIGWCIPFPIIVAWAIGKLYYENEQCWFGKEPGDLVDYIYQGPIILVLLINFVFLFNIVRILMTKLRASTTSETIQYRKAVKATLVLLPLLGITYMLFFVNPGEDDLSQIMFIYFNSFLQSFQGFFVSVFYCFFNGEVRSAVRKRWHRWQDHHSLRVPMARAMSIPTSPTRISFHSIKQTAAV
T2 sequence (P24387 whole entry): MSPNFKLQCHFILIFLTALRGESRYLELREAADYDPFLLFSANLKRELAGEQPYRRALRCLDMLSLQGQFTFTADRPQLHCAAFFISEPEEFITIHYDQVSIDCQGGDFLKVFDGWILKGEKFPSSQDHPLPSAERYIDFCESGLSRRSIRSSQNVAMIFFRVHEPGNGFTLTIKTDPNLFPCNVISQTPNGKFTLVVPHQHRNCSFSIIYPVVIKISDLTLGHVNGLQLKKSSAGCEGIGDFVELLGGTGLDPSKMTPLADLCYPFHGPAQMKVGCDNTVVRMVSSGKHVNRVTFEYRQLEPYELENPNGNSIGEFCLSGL

[6] = blockers of CRF-binding protein–CRF-R2 complex – cell-based, uHTS hits, 384-well, dose response (AID 651639); type: functional, Homo sapiens; conditions: read-out: IC50_Mean
[7] = target: T2, Corticotropin-releasing factor receptor 2/Corticotropin-releasing factor-binding protein; test: Dose Response confirmation of uHTS hits for small molecule antagonists of the CRF-binding protein and CRF-R2 receptor complex.; type: functional; conditions: read-out: IC50_Mean
[8] = NIH-3T3 fibroblast cytotoxicity, dose response, cytotoxicity control, cell-based, fluorescence, Alamar Blue, secondary assay (AID 2327); type: functional;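 also: NIH-3T3 mouse fibroblasts cultured with fluconazole at 8 µg/mL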
[9] = tested on: HT-1080; test: HT1080 cell viability loss – fluorescence readout (AID 620); type: functional, cell-based; conditions: Homo sapiens
[10] = target: T3, Luciferin 4-monooxygenase (Photinus pyralis, UniProt P08659); test: Counter Screen for Luciferase-based Assay Positives. [Related pubchem assays: 620, 618, 411 ]
T3 sequence (P08659 whole entry): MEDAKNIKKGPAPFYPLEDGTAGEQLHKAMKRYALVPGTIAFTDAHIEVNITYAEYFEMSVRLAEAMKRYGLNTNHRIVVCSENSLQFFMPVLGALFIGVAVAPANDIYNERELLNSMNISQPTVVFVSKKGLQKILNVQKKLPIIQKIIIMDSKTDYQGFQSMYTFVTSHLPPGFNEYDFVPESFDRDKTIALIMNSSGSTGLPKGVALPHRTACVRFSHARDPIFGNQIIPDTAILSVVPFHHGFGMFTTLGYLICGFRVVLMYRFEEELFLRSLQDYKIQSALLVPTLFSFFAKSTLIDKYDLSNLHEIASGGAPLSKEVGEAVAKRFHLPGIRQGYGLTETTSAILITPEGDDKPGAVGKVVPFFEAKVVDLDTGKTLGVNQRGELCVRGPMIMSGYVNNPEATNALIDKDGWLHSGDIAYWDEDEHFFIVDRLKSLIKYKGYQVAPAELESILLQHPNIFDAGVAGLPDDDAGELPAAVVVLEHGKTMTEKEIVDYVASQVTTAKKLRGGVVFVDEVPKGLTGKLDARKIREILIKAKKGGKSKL

[11] = target: T4, Adenosylmethionine-8-amino-7-oxononanoate aminotransferase (Mycobacterium tuberculosis, UniProt P9WQ81); test: Mycobacterium tuberculosis BioA enzyme inhibitor Measured in Biochemical System Using Plate Reader - 2163-02_Inhibitor_Dose_CherryPick_Activity.; type: functional, Mycobacterium tuberculosis UT205
T4 sequence (P9WQ81 whole entry): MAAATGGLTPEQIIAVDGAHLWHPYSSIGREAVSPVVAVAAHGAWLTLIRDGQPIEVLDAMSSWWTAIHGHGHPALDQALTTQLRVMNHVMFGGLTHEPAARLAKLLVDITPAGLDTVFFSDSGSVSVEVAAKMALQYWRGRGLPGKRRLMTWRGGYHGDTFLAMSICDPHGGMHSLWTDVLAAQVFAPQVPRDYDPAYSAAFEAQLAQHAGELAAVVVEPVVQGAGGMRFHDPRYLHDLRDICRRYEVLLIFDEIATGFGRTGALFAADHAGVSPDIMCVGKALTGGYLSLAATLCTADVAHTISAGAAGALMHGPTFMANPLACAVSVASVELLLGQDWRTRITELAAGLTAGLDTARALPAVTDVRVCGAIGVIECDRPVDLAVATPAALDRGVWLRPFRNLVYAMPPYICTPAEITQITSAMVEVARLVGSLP

[12] = target: FAD-linked sulfhydryl oxidase ALR (Homo sapiens, UniProt P55789); test: ALR-catalysed DTT oxidation blockers – biochemical, H2O2 detection, luminescence, cherry-pick, dose response (AID 493248)
FAD-linked sulfhydryl oxidase ALR, sequence (P55789 whole entry): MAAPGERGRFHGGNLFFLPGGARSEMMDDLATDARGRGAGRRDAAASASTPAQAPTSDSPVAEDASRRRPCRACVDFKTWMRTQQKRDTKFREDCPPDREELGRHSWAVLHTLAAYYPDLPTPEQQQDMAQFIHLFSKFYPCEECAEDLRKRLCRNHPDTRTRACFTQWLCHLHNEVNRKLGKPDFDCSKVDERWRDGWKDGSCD

[13] = target: T5, Small ubiquitin-related modifier 1 (Homo sapiens, UniProt P63165); test: SUMO1 protein interaction blockers, potency – biochemical, fluorescence polarization, uHTS hits, dose response (AID 624382); type: functional; conditions: read-out: IC50_Mean
T5 sequence (P63165 whole entry): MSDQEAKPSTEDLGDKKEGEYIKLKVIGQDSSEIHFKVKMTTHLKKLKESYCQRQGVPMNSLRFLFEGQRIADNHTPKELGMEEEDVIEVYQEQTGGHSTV

[14] = target: T5, Small ubiquitin-related modifier 1; test: SUMO1 protein-protein binding blockers, potency – biochemical, FRET, dose response (AID 624383); type: functional; conditions: read-out: IC50_Mean
[15] = target: T6, Carboxy-terminal domain RNA polymerase II polypeptide A small phosphatase 1 (Homo sapiens, UniProt Q9GZU7); test: CTDSP1 inhibitors, concentration-response, biochemical, absorbance readout, ultra-high-throughput screen actives (AID 540297); type: functional
T6 sequence (Q9GZU7 whole entry): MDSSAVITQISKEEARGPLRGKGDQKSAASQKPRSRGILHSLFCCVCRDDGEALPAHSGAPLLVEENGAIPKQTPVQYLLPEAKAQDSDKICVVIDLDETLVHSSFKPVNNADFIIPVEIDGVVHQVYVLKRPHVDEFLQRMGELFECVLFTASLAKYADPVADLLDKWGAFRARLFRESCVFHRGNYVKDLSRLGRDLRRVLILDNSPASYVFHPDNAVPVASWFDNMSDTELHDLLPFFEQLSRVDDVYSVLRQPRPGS

[16] = blockade of melanocortin 4 receptor signaling – cell-based, plate reader, cherry pick, counter-screen for LGR2 antagonist project, dose response (AID 743444); type: functional;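 also: transfected HEK 293 cells stimulated with alpha-MSH peptide; potency of inhibitors of the alpha-MSH evoked signal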
[17] = A549 cell cytotoxicity, dose response, cytotoxicity control, plate reader, cherry-pick, antagonist series (AID 743412); type: functional, cell-based
[18] = toxicity toward HepG2 liver cells – cell-based, plate reader, cherry-pick, antagonist series, cytotoxicity control, dose response (AID 743416); type: functional
[19] = Luminescence Cell-Based Dose Confirmation HTS to Identify Inhibitors of Platelet Dense Granule Release. [Related pubchem assays: 1663 (Primary HTS), 1678 (Summary of Project)]; type: functional
[20] = target: T3, Luciferin 4-monooxygenase; test: inhibition of purified Photinus pyralis luciferase – biochemical, luminescence, dose response (AID 1891)
[21] = blockers of bursicon-stimulated LGR2 cAMP reporter – cell-based, HEK293, CRE-luciferase reporter, cherry pick, set 2, dose response (AID 743343); type: functional;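 also: transfected cells were stimulated with diluted bursicon conditioned medium after compound addition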
[22] = tested on: Vero; test: cells; type: functional, cell-based; conditions: Chlorocebus sabaeus
[23] = THP-1 cell cytotoxicity, dose response, cytotoxicity control for non-replicating M. tuberculosis project (AID 489025); type: functional
[24] = HepG2 cell cytotoxicity, dose response, cytotoxicity control for non-replicating M. tuberculosis project (AID 489018); type: functional; conditions: Mycobacterium tuberculosis
[25] = NIH3T3 cell viability loss – ATP luminescence, mouse fibroblasts, counter-screen, dose response (AID 2010); type: functional, cell-based;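 also: cells exposed to compound for about 90 hours before reading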
[26] = Trypanosoma cruzi growth suppression in host cells – NIH3T3 host cells, beta-gal luminescence, confirmation (AID 2044); type: functional, cell-based;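 also: intracellular parasites grown in NIH/3T3 mouse fibroblasts as host cells; luminescent beta-galactosidase reporter signal from transgenic T. cruzi replicating inside host cells; inhibitors lower the luminescence signal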

SMILES: CC(C)(C)c1cc(NC(=O)Nc2ccccc2)no1
- EC50 [1]: > 120 µM (not active)
- AC50 [2]: > 350 µM (inactive)

SMILES: O=C(O)COc1ccc(/C=C/c2ccc3cccc([N+](=O)[O-])c3n2)cc1
- IC50 [3]: 23.2 µM (active)
- AC50 [4]: 6.6 µM (active)

SMILES: O=C(O)c1cnc(-c2ccccc2)nc1Sc1ccc(Cl)cc1
- EC50 [5]: > 53 µM (inactive)
- IC50 [6]: > 20 µM (inactive)
- IC50 [7]: 16.8 µM (active)
- EC50 [8]: 98.3 µM (inconclusive)

SMILES: O=C(Nc1nc2ccccc2[nH]1)c1ccccc1
- EC50 [9]: > 50 µM (not active)
- EC50 [10]: < 200 nM (active)

SMILES: CC(=O)Nc1cccc(-c2nc3ccc(NC(C)=O)cc3s2)c1
- AC50 [2]: 59.3 µM (active)

SMILES: COc1cccc(CNC(=O)c2ccc(NC(=O)C3=CSCCO3)cc2)c1
- AC50 [11]: 3.61 µM (active)

SMILES: Cc1ccc2[nH]c(-c3cccc(N)c3)nc2c1
- EC50 [9]: 20.6 µM (active)
- EC50 [10]: 490 nM (active)
- AC50 [12]: 838 nM (active)

SMILES: CC(=O)c1ccc(NC(=O)c2cccc(N3C(=O)c4ccccc4C3=O)c2)cc1
- IC50 [13]: > 66.6 µM (inactive)
- IC50 [14]: 3.13 µM (active)
- IC50 [15]: 9.44 µM (active)

SMILES: CCCc1ccc(-c2ccc(F)c(N)c2)nc1
- AC50 [16]: 4.06 µM (active)
- EC50 [9]: > 50 µM (not active)
- AC50 [17]: > 52 µM (inactive)
- EC50 [10]: 1580 nM (active)
- AC50 [18]: > 52 µM (inactive)
- EC50 [19]: 6.17 µM (active)
- EC50 [20]: 6.33 µM (active)
- AC50 [21]: 4.32 µM (active)

SMILES: CCN(CC)CCCNC(=O)c1ccc2c(Cl)c3c(nc2c1)CCCC3
- IC50 [22]: 22.6 µM (active)

SMILES: COc1ccc(C(=O)NNC2=C(C(=O)C(F)(F)F)CCC2)cc1
- CC50 [23]: 18.1 µM (active)
- CC50 [24]: > 20 µM (active)

SMILES: Cc1ccc(NCC(=O)c2ccc(C)cc2)cc1
- EC50 [25]: > 60 µM (not active)
- EC50 [26]: 4.53 µM (active)
- AC50 [2]: 103 µM (active)
